Data taken from patent publication US20090325964A1, “Piperazine Metabotropic Glutamate Receptor 5 (MGLUR5) Negative Allosteric Modulators For Anxiety/Depression” (Wyeth, priority 2008, published 2009).
Read-outs that look alike come from different tables or passages of the source. Blank lines part the entries; values can stand above or below the molecule they belong to.

Target: T1, rat mGluR5 receptor (Rattus norvegicus, UniProt P31424)
T1 construct: expressed in transfected cells; host or cells: HEK-293
T1 sequence (P31424 21-1203): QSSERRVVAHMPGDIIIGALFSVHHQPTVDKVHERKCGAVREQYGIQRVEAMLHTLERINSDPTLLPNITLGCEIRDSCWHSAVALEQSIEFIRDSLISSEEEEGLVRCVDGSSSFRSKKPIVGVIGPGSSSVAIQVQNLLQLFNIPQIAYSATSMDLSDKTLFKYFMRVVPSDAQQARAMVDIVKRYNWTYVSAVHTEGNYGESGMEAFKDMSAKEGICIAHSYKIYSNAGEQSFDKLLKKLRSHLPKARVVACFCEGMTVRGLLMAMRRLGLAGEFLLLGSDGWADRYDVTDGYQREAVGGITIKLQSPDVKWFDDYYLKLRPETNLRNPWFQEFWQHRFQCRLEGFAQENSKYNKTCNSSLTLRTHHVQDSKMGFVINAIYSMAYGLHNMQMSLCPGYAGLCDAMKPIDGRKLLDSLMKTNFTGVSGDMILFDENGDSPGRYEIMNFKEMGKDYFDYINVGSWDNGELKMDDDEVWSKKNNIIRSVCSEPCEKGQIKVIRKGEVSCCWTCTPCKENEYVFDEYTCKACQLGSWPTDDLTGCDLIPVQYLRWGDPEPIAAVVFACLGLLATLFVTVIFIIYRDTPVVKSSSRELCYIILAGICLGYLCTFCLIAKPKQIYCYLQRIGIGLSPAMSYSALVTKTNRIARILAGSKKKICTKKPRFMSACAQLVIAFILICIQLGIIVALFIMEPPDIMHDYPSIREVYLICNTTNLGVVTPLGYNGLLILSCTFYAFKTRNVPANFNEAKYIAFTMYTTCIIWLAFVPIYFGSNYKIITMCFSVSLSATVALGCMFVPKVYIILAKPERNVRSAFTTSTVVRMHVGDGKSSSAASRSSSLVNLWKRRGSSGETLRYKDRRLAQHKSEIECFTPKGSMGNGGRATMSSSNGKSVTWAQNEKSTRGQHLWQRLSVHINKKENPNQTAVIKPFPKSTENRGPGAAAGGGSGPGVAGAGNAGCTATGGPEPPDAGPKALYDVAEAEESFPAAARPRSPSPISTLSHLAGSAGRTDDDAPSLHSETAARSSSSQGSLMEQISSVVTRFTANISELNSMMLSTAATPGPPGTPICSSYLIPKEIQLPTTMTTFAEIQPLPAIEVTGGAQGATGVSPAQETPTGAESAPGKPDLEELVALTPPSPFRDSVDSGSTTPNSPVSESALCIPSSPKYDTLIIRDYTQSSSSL
Assay: [3H]-MPEP displacement binding assay, HEK-293 cell membranes expressing rat mGluR5
Settings: for Ki: read-out: Median Ki
Description: MGluR5 expressing HEK-293 cells were scraped off a plate, transferred to centrifuge tubes and washed twice by centrifugation (2000 rpm for 10 minutes, at 4° C.) in buffer (50 mM Tris pH 7.5). The resulting pellets were aliquoted and stored at minus 80° C. On the day of assay, the cells were thawed on ice and re-suspended in buffer. The binding assay was performed in a 96 well microtiter plate in a total volume of […]. Non-specific binding was determined in the presence of 10 μM MPEP. The binding reaction included a final radioligand [^3H]-MPEP concentration of 4 nM and 12-25 μg membrane protein per well. Following a 60 minute incubation at room temperature, the reaction was terminated by the addition of ice cold buffer and rapid filtration through a GF/B filter that had been presoaked for 30 minutes in 0.5% PEI. Compounds were initially tested in a single point assay to determine percent inhibition at 10 μM.
Percent inhibition and Ki values were generated by GraphPad Prism and Excel Fit. IC50 values were calculated using GraphPad by fitting to a 1 or 2 site-binding model.
where [L] is the concentration of free radioligand and Kd is the dissociation constant of radioligand for the receptor.

[1] = [3H]-MPEP displacement, rat mGluR5
[2] = 1 h, single point, @ 10 μm compound, Table 1A, read-out: PCT INHIB (%) @ 10 μm
[3] = @ 10 μM compound, Biological Activity, Table 2A, read-out: PCT INHIB (%) @ 10 μM

Molecule: 1-(3-chlorobenzyl)-4-[4-methoxy-3-(pyridin-2-ylethynyl)benzoyl]piperazin-2-one [Compound 333]
Ki [1]: 34 nM

inhibition at 10 µM [2]: 0%
Molecule: O=C(c1cccc(C#CC2(O)CCCC2)c1)N1CCN(c2ccccn2)CC1 [Compound 9, 1-({3-[(4-pyridin-2-ylpiperazin-1-yl)carbonyl]phenyl}ethynyl)cyclopentanol]

inhibition at 10 µM [3]: 77% | Ki (Biological Activity, Table 2A): 853 nM
Molecule: COc1ccc(C(=O)N2CCN(c3cccc(C)n3)CC2)cc1C#Cc1ccccc1 [Compound 116, 1-[4-methoxy-3-(phenylethynyl)benzoyl]-4-(6-methylpyridin-2-yl]piperazine]

Ki [1]: 619 nM
Molecule: COc1ccc(C(=O)N2CCCN(c3cccc(C)n3)CC2)cc1C#Cc1ccccn1 [Compound 211, 1-[4-methoxy-3-(pyridin-2-ylethynyl)benzoyl]-4-(6-methylpyridin-2-yl)-1,4-diazepane]

inhibition at 10 µM [2]: 81% | Ki: 469 nM
Molecule: Cc1ccc(C(=O)N2CCN(c3ccccn3)CC2)cc1C#Cc1cccc(C(F)(F)F)c1 [Compound 27, 1-(4-methyl-3-{[3-(trifluoromethyl)phenyl]ethynyl}benzoyl)-4-pyridin-2-ylpiperazine]

IC50 ([3H]-MPEP displacement, rat mGluR5, no Ki given, read-out: IC50 (printed in the Median Ki column instead of a Ki)): > 10000 nM
Molecule: COc1ccc(C(=O)N2CCN(c3cc4ccccc4s3)CC2)cc1C#Cc1ccccn1 [Compound 290, 1-(1-benzothiophen-2-yl)-4-[4-methoxy-3-(pyridin-2-ylethynyl)benzoyl]piperazine]

inhibition at 10 µM [2]: 100% | Ki: 62.5 nM
Molecule: Cc1cccc(C#Cc2cc(C(=O)N3CCN(c4cnccn4)CC3)ccc2C)c1 [Compound 59, 2-(4-{4-methyl-3-[(3-methylphenyl)ethynyl]benzoyl}piperazin-1-yl)pyrazine]

inhibition at 10 µM [3]: 0%
Molecule: O=C(c1cccc(C#Cc2ccccc2)c1)N1CCN(c2cc(Cl)cc(Cl)c2)CC1 [Compound 84, 1-(3,5-dichlorophenyl)-4-[3-(phenylethynyl)benzoyl]piperazine]

Ki [1]: 1570 nM
Molecule: O=C(c1ccc(OC(F)(F)F)c(C#Cc2ccccn2)c1)N1CCN(c2cccc(C(F)(F)F)c2)CC1 [Compound 337, 1-[3-(pyridin-2-ylethynyl)-4-(trifluoromethoxy)benzoyl]-4-[3-(trifluoromethyl)phenyl]piperazine]

inhibition at 10 µM [2]: 49%
Molecule: Cc1ccc(C(=O)N2CCN(c3ccccn3)CC2)cc1C#Cc1ccncc1 [Compound 48, 1-[4-methyl-3-(pyridin-4-ylethynyl)benzoyl]-4-pyridin-2-ylpiperazine]

inhibition at 10 µM [2]: 41%
Molecule: Cc1ccc(C(=O)N2CCN(c3ccccn3)CC2)cc1C#Cc1cc(F)cc(F)c1 [Compound 29, 1-{3-[(3,5-difluorophenyl)ethynyl]-4-methylbenzoyl}-4-pyridin-2-ylpiperazine]

inhibition at 10 µM (single point, @ 10 μM compound, Table 6, read-out: PCT INHIB (%) @ 10 μM): 13%
Molecule: Oc1cccc(C#Cc2cccc(CN3CCN(c4ccccn4)CC3)c2)c1 [Compound 177, 3-({3-[(4-pyridin-2-ylpiperazin-1-yl)methyl]phenyl}ethynyl)phenol]

IC50 (bound printed in place of a Ki, read-out: IC50 (printed in the Median Ki column)): > 10000 nM
Molecule: COc1nc(N2CCN(C(=O)c3ccc(C(F)(F)F)c(C#Cc4ccccn4)c3)CC2)ncc1Br [Compound 365, 5-bromo-4-methoxy-2-(4-{[3-(pyridin-2-ylethynyl)-4-(trifluoromethyl)phenyl]carbonyl}piperazin-1-yl)pyrimidine]

Ki [1]: 170 nM
Molecule: COc1ccc(C(=O)N2CCN(Cc3ccc(Cl)c(Cl)c3)CC2)cc1C#Cc1ccccn1 [Compound 288, 1-(3,4-dichlorobenzyl)-4-[4-methoxy-3-(pyridin-2-ylethynyl)benzoyl]piperazine]

Ki ([3H]-MPEP 4 nM, Table 4A): 862 nM
Molecule: O=C(c1cccc(COc2cccc(Br)c2)c1)N1CCN(c2ccccn2)CC1 [Compound 169, 1-{3-[(3-bromophenoxy)methyl]benzoyl}-4-pyridin-2-ylpiperazine]

Ki [1]: 4970 nM
Molecule: COc1ccc(C(=O)N2CCN(c3ncccn3)CC2)cc1C#Cc1cccnc1 [Compound 354, 2-{4-[4-methoxy-3-(pyridin-3-ylethynyl)benzoyl]piperazin-1-yl}pyrimidine]

Ki ([3H]-MPEP 4 nM, Table 4A): 2970 nM
Molecule: N#Cc1cccc(OCc2cccc(C(=O)N3CCN(c4ccccn4)CC3)c2)c1 [Compound 165, 3-({3-[(4-pyridin-2-ylpiperazin-1-yl)carbonyl]benzyl}oxy)benzonitrile]
